Data set [1] concerns cyclophilins. The note with it: binding to the active site; cited from earlier work. From the text: Catalytically active cyclophilins with a single cyclophilin domain reported till now are monomeric in nature.
In data set [2] the target is Cyclophilin 1 (TvCyP1) of Trichomonas vaginalis (Trichomonas vaginalis). As to the kind of experiment: SEC-MALS; 300 μg TvCyP1 (3 mg/mL) on ENrich SEC 70 column; 20 mM monosodium phosphate, 50 mM NaCl, 0.5 mM NaN3, pH 6.0, 25 °C.
Data set [3] addresses FITC-labeled Myb1^104–111 peptide (Trichomonas vaginalis). As to the kind of experiment: fluorescence polarisation.
The target in data set [4] is Cyclophilin 1 (TvCyP1) of Trichomonas vaginalis (Trichomonas vaginalis). As to the kind of experiment: AUC; sedimentation velocity, 29 μM TvCyP1 (legend: 30 μM), 20 °C, 50,000 rpm; 20 mM monosodium phosphate, 50 mM NaCl, 0.5 mM NaN3, pH 6.0; Sedfit.
The conditions of data set [5]: cited from earlier work. The source says:
Nuclear translocation of Myb1 is an important step regulating the expression of disease causing ap65–1 gene. […] Moreover, CsA is not specific to any of the isof ...

The subject of data set [6] is isoforms of cyclophilins. Set-up: method as in PMID 20676357. The settings on record: cited from earlier work.
Data set [7] deals with TvCyP1. As to the kind of experiment: NMR ROESY cis/trans isomerization (PPIase) of P107 in Myb1^104–111. In kind it is biochemical, Trichomonas vaginalis. Here is the method: ^1H-TOCSY, ^1H-COSY and ^1H-NOESY were performed at 300 K with a mixing time of 75 ms (TOCSY) and 300 ms (NOESY) on the Myb1^104–111 peptide to complete the assignment of proton resonances. The peptide was dissolved in 20 mM monosodium phosphate, 50 mM NaCl, 0.5 mM NaN3 (pH 6.0) to obtain a concentration of 2 mM. All ROESY experiments were performed at 300 K with 300 ms mixing time. […]

Data set [8] deals with parasite. The settings on record: cited from earlier work. From the text:
In most cases, the biological substrates of these cyclophilins are unknown and extensive structural studies on cyclophilin- substrate interactions have not been reported.

Entries after “also recorded” stand apart in the source; their conditions may differ.

For `CC[C@H]1C[C@H](C)[C@@]2(NC1=O)O[C@@H](C[C@H](O)[C@@H](C)CC/C=C/C=C(\C)[C@@H]1C/C=C/C=C/[C@H](O)[C@H](C)[C@@H](O)[C@@H](CCC(C)=O)C(=O)N[C@@H](C(C)C)C(=O)N[C@@H](Cc3cccc(O)c3)C(=O)N3CCC[C@H](N3)C(=O)O1)[C@H](C)[C@H](O)[C@@H]2C` [sanglifehrin A (SfA), sanglifehrin A], the “inhibition of PPIase activity of cyclophilins” value in data set [1] is listed as “PPIase activity of cyclophilins can be inhibited”.

For “Cyclophilin 1 (TvCyP1) of Trichomonas vaginalis (enzyme)”, the stoichiometry N in data set [2] and in data set [4] was 2 in each case. Also, the Kd in data set [3] came out at 16.8 µM.

Turning to cyclosporin A [CsA], the “inhibition of PPIase activity of cyclophilins” value in data set [1] is reported as “PPIase activity of cyclophilins can be inhibited”. For the same compound, the immunosuppressive activity entry in data set [5] is on record as “deleterious effect of its immunosuppressive activity”. In addition, in data set [6], the isoform specificity result is on record as “not specific to any of the isoforms of cyclophilins”. The “inhibition of TvCyP1 isomerase activity” value in data set [7] (ROESY, 300 ms mixing time, 300 K, pH 6.0, CsA 22 μM (1.0 molar equivalent), 4.4 mM Myb1^104–111, 22 μM TvCyP1) was “hindered catalysis; also recorded: loss of the exchange cross-peaks between cis and trans resonances”. Also, the “inhibition of Myb1^104–111 binding to TvCyP1 active site” value in data set [7] (from ROESY experiments, CsA) is recorded as “can inhibit Myb1^104–111 binding to the active site”. Also, in data set [8], the anti-parasitic activity result is listed as “have been found with anti-parasitic activity”.

The values are drawn from publication PMC5882848, “Structural basis of interaction between dimeric cyclophilin 1 and Myb1 transcription factor in Trichomonas vaginalis” (Scientific Reports, 2018).
